7 compounds from PubChem BioAssay (NCI) can be followed below.

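Dose response: 5 concentrations. Exposure: 48 h. Format: 96-well plates. Endpoint: linear interpolation; highest concentration if not reached. GI50: concentration for 50% inhibition of growth. The concentration for full growth arrest is given as TGI.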

Among the test systems are SK-MEL-28 melanoma; HOP-62 NSCLC; SK-MEL-2 melanoma; RPMI-8226 leukemia; DU-145 prostate; HL-60(TB) leukemia; A549 NSCLC; SF-268 CNS; NCI-H226 lung; HS 578T breast.
Holding throughout (assay): NCI tumour cell line growth inhibition, 48 h

`CCOC(=O)C(=Cc1ccc(C#N)cc1)C(=O)OCC`: the GI50 in the assay on SK-MEL-28 melanoma is 2.35 µM; in the assay on HOP-62 NSCLC, 2.73 µM; with SK-MEL-2 melanoma, 1.93 µM; in the assay on RPMI-8226 leukemia it was 2.65 µM; with DU-145 prostate it was 3.04 µM; in the assay with HL-60(TB) leukemia, 1.88 µM. For the same compound, the GI50 in the assay on A549 NSCLC is 4.11 µM; in the assay on SF-268 CNS, 2.29 µM; with NCI-H226 lung it was 2.51 µM; with HS 578T breast, 4.19 µM. Further, the TGI stood at 6.56 µM in the assay with SK-MEL-28 melanoma; 9.81 µM in the assay on HOP-62 NSCLC; 4.19 µM in the assay with SK-MEL-2 melanoma; 7.71 µM with RPMI-8226 leukemia; 10.3 µM in the assay on DU-145 prostate; 5.48 µM in the assay with HL-60(TB) leukemia. Moreover, the TGI with A549 NSCLC came out at 14.5 µM; in the assay with SF-268 CNS, 7.57 µM; in the assay on NCI-H226 lung, 6.33 µM; in the assay with HS 578T breast, 37.9 µM.

With `COc1cc2nc(N3CCCN(C)CC3)nc(NC3CCN(Cc4ccccc4)CC3)c2cc1OC`, the GI50 was 1.88 µM in the assay with SK-MEL-28 melanoma; 3.23 µM in the assay with HOP-62 NSCLC; 2.08 µM in the assay on SK-MEL-2 melanoma; 2.31 µM with RPMI-8226 leukemia; 2.86 µM in the assay on DU-145 prostate; 1.83 µM in the assay with HL-60(TB) leukemia. Moreover, the GI50 was 2.94 µM with A549 NSCLC, 2.72 µM in the assay on SF-268 CNS, 2.68 µM in the assay on NCI-H226 lung and 2.04 µM in the assay on HS 578T breast. The TGI in the assay with SK-MEL-28 melanoma worked out at 3.77 µM; in the assay on HOP-62 NSCLC, 10.6 µM; in the assay on SK-MEL-2 melanoma it was 4.25 µM; in the assay on RPMI-8226 leukemia it was 6.18 µM; in the assay on DU-145 prostate it was 9.38 µM; with HL-60(TB) leukemia, 4.3 µM. The TGI with A549 NSCLC is 10.2 µM; with SF-268 CNS, 8.65 µM; with NCI-H226 lung, 9.08 µM; in the assay on HS 578T breast, 5.59 µM.

For the compound `Fc1cccc(COc2ccc(Nc3ncnc4onc(-c5ccccc5)c34)cc2)c1`, the GI50 was 16.4 µM with SK-MEL-28 melanoma; 0.406 µM in the assay on HOP-62 NSCLC; 0.426 µM in the assay on SK-MEL-2 melanoma; 0.0497 µM in the assay with RPMI-8226 leukemia; 0.172 µM in the assay on DU-145 prostate; 0.0955 µM in the assay on HL-60(TB) leukemia. Also, the GI50 was 0.175 µM with A549 NSCLC, 0.384 µM in the assay on SF-268 CNS, 3.06 µM in the assay on NCI-H226 lung and 0.0974 µM with HS 578T breast. Also, the TGI is more than 100 µM in the assay with SK-MEL-28 melanoma; more than 100 µM in the assay on HOP-62 NSCLC; more than 100 µM with SK-MEL-2 melanoma; more than 42 µM with RPMI-8226 leukemia; 0.806 µM with DU-145 prostate; more than 100 µM in the assay on HL-60(TB) leukemia. Further, the TGI in the assay on A549 NSCLC is more than 100 µM; in the assay on SF-268 CNS it was more than 100 µM; in the assay with NCI-H226 lung, more than 100 µM; in the assay with HS 578T breast, 2.02 µM.

On to `CC1(C)N=C(N)N=C(N)N1c1ccc(CNC(=O)Nc2ccc(S(=O)(=O)F)c(Cl)c2)c(Cl)c1`, for which the GI50 with SK-MEL-28 melanoma is 4.35 µM; with HOP-62 NSCLC, 9.81 µM; with SK-MEL-2 melanoma it was 12.2 µM; in the assay on RPMI-8226 leukemia, 1.43 µM; in the assay on DU-145 prostate, 0.76 µM; in the assay on HL-60(TB) leukemia, 0.377 µM. Besides, the GI50 in the assay on A549 NSCLC was 0.56 µM; in the assay on SF-268 CNS it was 0.686 µM; with NCI-H226 lung, 13.7 µM; in the assay with HS 578T breast, 21.8 µM. Further, the TGI is more than 100 µM in the assay with SK-MEL-28 melanoma; more than 100 µM in the assay with HOP-62 NSCLC; more than 74.9 µM in the assay on SK-MEL-2 melanoma; more than 100 µM with RPMI-8226 leukemia; more than 100 µM in the assay on DU-145 prostate; more than 100 µM in the assay on HL-60(TB) leukemia. Besides, the TGI in the assay on A549 NSCLC, in the assay on SF-268 CNS, in the assay with NCI-H226 lung and in the assay on HS 578T breast was more than 100 µM in each case.

As to `COc1cc(CCC[P+](c2ccccc2)(c2ccccc2)c2ccccc2)c(OC)c2c1OCO2`, the GI50 in the assay with SK-MEL-28 melanoma was 0.875 µM; in the assay with HOP-62 NSCLC, 2.91 µM; in the assay on SK-MEL-2 melanoma, 1.9 µM; in the assay with RPMI-8226 leukemia, 0.283 µM; in the assay with DU-145 prostate, 3.21 µM; in the assay with HL-60(TB) leukemia it was 0.387 µM. Moreover, the GI50 is 3.95 µM with A549 NSCLC, 2.13 µM in the assay on SF-268 CNS, 3.13 µM in the assay with NCI-H226 lung and 1.74 µM in the assay on HS 578T breast. Also, the TGI was 14 µM with SK-MEL-28 melanoma; 11.3 µM with HOP-62 NSCLC; 10.5 µM in the assay with SK-MEL-2 melanoma; 1.87 µM in the assay with RPMI-8226 leukemia; 74.5 µM in the assay with DU-145 prostate; 2.35 µM with HL-60(TB) leukemia. Also, the TGI with A549 NSCLC stood at 68.9 µM; in the assay on SF-268 CNS it was 13.1 µM; in the assay with NCI-H226 lung, 21.3 µM; in the assay with HS 578T breast, 8.54 µM.

Take `NC(=S)N/N=C/c1ccc(OC(=O)COc2cc(Cl)c(Cl)cc2Cl)cn1`: the GI50 in the assay on SK-MEL-28 melanoma was 13.1 µM; with HOP-62 NSCLC, 3.68 µM; with SK-MEL-2 melanoma, 12.7 µM; in the assay with RPMI-8226 leukemia, 7.29 µM; with DU-145 prostate, 3.52 µM; with HL-60(TB) leukemia it was 3.97 µM. For the same compound, the GI50 in the assay with A549 NSCLC was 24.4 µM; in the assay with SF-268 CNS, 3.52 µM; with NCI-H226 lung, 15.8 µM; with HS 578T breast, 51 µM. The TGI with SK-MEL-28 melanoma was more than 100 µM; with HOP-62 NSCLC, 38.4 µM; in the assay with SK-MEL-2 melanoma, more than 100 µM; in the assay on RPMI-8226 leukemia, more than 100 µM; in the assay with DU-145 prostate, 27.3 µM; in the assay on HL-60(TB) leukemia it was 47.9 µM. For the same compound, the TGI was more than 100 µM with A549 NSCLC, 43.6 µM in the assay with SF-268 CNS, 56.7 µM in the assay on NCI-H226 lung and more than 100 µM in the assay with HS 578T breast.

In the case of `Cc1cc2c(F)c(Oc3ncnc(Nc4ccc(N5C[C@@H](C)N[C@@H](C)C5)cc4)c3C#N)cc(F)c2[nH]1`, the GI50 in the assay with SK-MEL-28 melanoma was 1.96 µM; in the assay on HOP-62 NSCLC it was 2.86 µM; with SK-MEL-2 melanoma it was 2.2 µM; with RPMI-8226 leukemia, 1.72 µM; in the assay with DU-145 prostate, 3.31 µM; in the assay with HL-60(TB) leukemia, 1.93 µM. The GI50 is 2.84 µM with A549 NSCLC, 2.07 µM in the assay with SF-268 CNS, 1.39 µM with NCI-H226 lung and 1.77 µM in the assay on HS 578T breast. Also, the TGI is 3.7 µM in the assay on SK-MEL-28 melanoma; 9.87 µM with HOP-62 NSCLC; 4.67 µM in the assay on SK-MEL-2 melanoma; 4.33 µM in the assay with RPMI-8226 leukemia; 11.1 µM in the assay on DU-145 prostate; 3.95 µM with HL-60(TB) leukemia. Also, the TGI with A549 NSCLC is 8.02 µM; in the assay with SF-268 CNS, 8.36 µM; with NCI-H226 lung it was 11.6 µM; in the assay with HS 578T breast, 5.4 µM.
